Experiments:
[1] = system: P. aeruginosa strains from cystic fibrosis patients; experiment: Macrobroth dilution MICs against two P. aeruginosa strains; type: cell-based, Pseudomonas aeruginosa
[2] = system: P. aeruginosa strains PSAR 461, PSAR 468; experiment: Time-kill macrobroth MICs, P. aeruginosa strains PSAR 461 and PSAR 468; type: cell-based, Pseudomonas aeruginosa; settings: strain PSAR 468
Protocol: (§1) Susceptibility testing. Original MICs of each strain to CEM-102 and other comparators was tested by CLSI microdilution methodology. Trays were obtained from Trek, Inc., Cleveland, Ohio. Time-kill macrobroth MIC dilution by CLSI was performed for all synergy testing.
(§2) Synergy testing. Two of the MRSA strains were chosen and tested for synergy, together with the four Gram-negative strains mentioned above. Broth macrodilution formed the basis of MICs used in time-kill experiments, as detailed below. The kill kinetics of each drug was tested alone by incubating an initial inoculum of 5×10^5 to 5×10^6 cfu/ml with drug concentrations at the MIC, three dilutions above and three dilutions below the MIC (1/2, 1/4 and 1/8×MIC). Viability counts were performed after 0, 3, 6, 12 and 24 h incubation at 37° C. in a shaking water bath by plating onto trypticase soy-5% sheep blood agar plates.

[3] = system: B. cepacia strains BCEP 953, BCEP 954; experiment: Time-kill macrobroth MICs, B. cepacia strains BCEP 953 and BCEP 954; type: cell-based, Burkholderia cepacia
Protocol: as §1, §2

[4] = system: MRSA strains SA 2230, SA 2232; experiment: Time-kill macrobroth MICs, MRSA strains SA 2230 and SA 2232; type: cell-based, Staphylococcus aureus
Protocol: as §1, §2

[5] = system: MRSA strains from cystic fibrosis patients; experiment: CLSI microdilution MICs against 40 MRSA strains; type: cell-based, Staphylococcus aureus; design: MICs (range): unit not given beside the values
Protocol: Strains. Two strains each of mucoid Pseudomonas aeruginosa (both pyocyanin positive) and 40 MRSA (only one strain with gold colonies), isolated within the past 12 months and beyond from patients at in cystic fibrosis clinic, were tested. Additionally, two B. cepacia strains were acquired from Hershey Medical Center. All strains were identified by standard methods. Only one strain per patient was tested. MLVA was done on all strains, to examine clonality and to ensure that testing was not being limited to only one or a few clones. Strains were stored in skim milk at −70° C. until use.
as §1
MICs were assayed by standard methodology.

[6] = system: B. cepacia strains from cystic fibrosis patients; experiment: Macrobroth dilution MICs against two B. cepacia strains; type: cell-based, Burkholderia cepacia
[7] = blood; cited from earlier work
[8] = Staphylococcus aureus, microdilution, 40 MRSA strains

**Q.** For `NCC[C@H](O)C(=O)N[C@@H]1C[C@H](N)[C@@H](O[C@H]2O[C@H](CN)[C@@H](O)[C@H](O)[C@H]2O)[C@H](O)[C@H]1O[C@H]1O[C@H](CO)[C@@H](O)[C@H](N)[C@H]1O` [Amikacin], which “MIC Range” value [1] is on record?
**A.** Its value is 2 to 8 µg/mL.

**Q.** With `CC(=O)O[C@H]1C[C@@]2(C)[C@@H](C[C@@H](O)[C@H]3[C@@]4(C)CC[C@@H](O)[C@@H](C)[C@@H]4CC[C@@]32C)/C1=C(\CCC=C(C)C)C(=O)[O-].[Na+]` [CEM-102, Sodium fusidate] as the compound, how does the “Time-kill macrobroth MIC” value [2] read?
**A.** The value was 256 µg/mL.

**Q.** What about the “Time-kill macrobroth MIC” value ([3]; strain BCEP 953) of the same compound?
**A.** The value was 512 µg/mL.

**Q.** And the “Time-kill macrobroth MIC” value ([3]; strain BCEP 954)?
**A.** The value was 512 µg/mL.

**Q.** What about the “Time-kill macrobroth MIC” value ([4]; strain SA 2230) of the same compound?
**A.** The value was 0.5 µg/mL.

**Q.** What about the “Time-kill macrobroth MIC” value ([4]; strain SA 2232) of the same compound?
**A.** The value was 0.25 µg/mL.

**Q.** And the MIC50 [5, 8]?
**A.** The MIC50 was 0.12 µg/mL.

**Q.** What about the MIC90 [5, 8] of the same compound?
**A.** Its MIC90 is 0.25 µg/mL.

**Q.** And the Potency in words ([5]; all strains of MRSA tested)?
**A.** The Potency in words was “very potent”.

**Q.** And the “MIC Range” value ([5]; microdilution, 40 MRSA strains)?
**A.** The value was 0.12 to 0.5 µg/mL.

**Q.** What about the “MIC Range” value [1] of the same compound?
**A.** The value was greater than 64 µg/mL.

**Q.** And the “MIC Range” value [6]?
**A.** Its value is greater than 64 µg/mL.

**Q.** Which “MIC Range” value ([5]; microdilution, 40 MRSA strains) does the source give for `CCCCCCCCCC(=O)N[C@@H](Cc1c[nH]c2ccccc12)C(=O)N[C@H](CC(N)=O)C(=O)N[C@@H](CC(=O)O)C(=O)N[C@@H]1C(=O)NCC(=O)N[C@@H](CCCN)C(=O)N[C@@H](CC(=O)O)C(=O)N[C@H](C)C(=O)N[C@@H](CC(=O)O)C(=O)NCC(=O)N[C@H](CO)C(=O)N[C@@H]([C@H](C)CC(=O)O)C(=O)N[C@@H](CC(=O)c2ccccc2N)C(=O)O[C@@H]1C` [Daptomycin] here?
**A.** Its value is 0.5-1^ μg/ml.

**Q.** With `CC(=O)O[C@H]1C[C@@]2(C)[C@@H](C[C@@H](O)[C@H]3[C@@]4(C)CC[C@@H](O)[C@@H](C)[C@@H]4CC[C@@]32C)/C1=C(\CCC=C(C)C)C(=O)O` [FA, Fusidic Acid] as the compound, how does the protein binding [7] read?
**A.** Its protein binding is 95-97%.

**Q.** What does the source list for `CC(=O)NC[C@H]1CN(c2ccc(N3CCOCC3)c(F)c2)C(=O)O1` [Linezolid]?
**A.** MICs (range) ([5]; all MRSA strains tested): 1-4; MIC Range ([5]; microdilution, 40 MRSA strains): 1 to 4 µg/mL

**Q.** Which “MIC Range” value ([5]; microdilution, 40 MRSA strains) does the source give for `CN(C)c1cc(NC(=O)CNC(C)(C)C)c(O)c2c1C[C@H]1C[C@H]3[C@H](N(C)C)C(O)=C(C(N)=O)C(=O)[C@@]3(O)C(O)=C1C2=O` [Tigecycline] here?
**A.** The value was 0.12 to 0.25 µg/mL.

**Q.** Which results are given for `NC[C@H]1O[C@H](O[C@H]2[C@H](O)[C@@H](O[C@H]3O[C@H](CO)[C@@H](O)[C@H](N)[C@H]3O)[C@H](N)C[C@@H]2N)[C@H](N)C[C@@H]1O` [Tobramycin, reference compound]?
**A.** MIC (reason strain not tested in combination) ([4]; strain MRSA 2232): > 512 µg/mL; MIC Range [1]: 0.25 to 1.0 µg/mL

**Q.** Which “MIC Range” value ([5]; microdilution, 40 MRSA strains) does the source give for `CN[C@H](CC(C)C)C(=O)N[C@H]1C(=O)N[C@@H](CC(N)=O)C(=O)N[C@H]2C(=O)N[C@H]3C(=O)N[C@H](C(=O)N[C@H](C(=O)O)c4cc(O)cc(O)c4-c4cc3ccc4O)[C@H](O)c3ccc(c(Cl)c3)Oc3cc2cc(c3O[C@@H]2O[C@H](CO)[C@@H](O)[C@H](O)[C@H]2O[C@H]2C[C@](C)(N)[C@H](O)[C@H](C)O2)Oc2ccc(cc2Cl)[C@H]1O` [Vancomycin] here?
**A.** Its value is 0.5-1^ μg/ml.

**Q.** For Teicoplanin, which “MIC Range” value ([5]; microdilution, 40 MRSA strains) is on record?
**A.** The value was 0.25 to 1 µg/mL.

From patent publication US20130164351A1 (priority 2010, published 2013)
